The values that follow are results of earlier work, collected in patent US20130137664A1, “LOW-DOSED SOLID ORAL DOSAGE FORMS FOR HRT” (BAYER INTELLECTUAL PROPERTY GMBH, priority 2010, published 2013).

This series deals with moderate or severe hot flushes in menopausal women. Particulars: 2 mg E2.

Regarding `C[C@]12CC[C@@H]3c4ccc(O)cc4CC[C@H]3[C@@H]1CC[C@@H]2O` [E2, estradiol], the estrogen-related adverse events entry is given as “increased”.
